The source of these data is patent US7147872B2, “Environmentally compatible processes compositions and materials treated thereby” (Pimi Marion Holdings, Ltd., priority 1998, dated 2006).

This assay concerns potato seeds. The assay can be described thus: Dry fog treatment of potato seeds to prevent sprouting, H2O2 with Ag and Cu ion (Example 19). Format: in vivo. Conditions: H2O2 500 PPM, Ag ion 0, Cu ion 0; 90% RH, 10° C. An excerpt:
The results were as follows:

As to `OO` [H2O2, hydrogen peroxide], the “Sprouting (%) one month” value is listed as 8%, the “Sprouting (%) three months” value is on record as 32% and the “Sprouting (%) two months” value turned out to be 22%.
